From ChEMBL document CHEMBL3638970, “Substituted benzamide derivatives” (2015)

Key:
[1] = biological target: Trace amine-associated receptor 1 (Mus musculus, UniProt Q923Y8); assay: (§1) Radioligand Binding Assay: Membrane Preparation and Radioligand Binding. HEK-293 cells stably expressing mouse TAA 1 were maintained at 37 C and 5% C02 in DMEM high glucose medium, containing fetal calf serum (10%, heat inactivated for 30 min at 56 C), penicillin/streptomycin (1%), and 375 ug/ml geneticin (Gibco). Cells were released from culture flasks using trypsin/ EDTA, harvested, washed twice with ice-cold PBS (without Ca2+ and Mg2+), pelleted at 1,000 rpm for 5 min at 4 C, frozen and stored at -80 C. Frozen pellets were suspended in 20 ml HEPES-NaOH (20 mM, pH 7.4) containing 10 mM EDTA and homogenized with a Polytron (PT 6000, Kinematica) at 14,000 rpm for 20 s. The homogenate was centrifuged at 48,000 x g for 30 min at 4 C. Subsequently, the supernatant was removed and discarded, and the pellet resuspended in 20 ml HEPES-NaOH (20 mM, pH 7.4) containing 0.1 mM EDTA using the Polytron (20 s at 14,000 rpm).; format: cell membranes, HEK293
[2] = biological target: Trace amine-associated receptor 1 (Rattus norvegicus, UniProt Q923Y9); assay: as §1, with “Assay:” for “Assay: Membrane Preparation and Radioligand Binding.”, “rat TAAR1” for “mouse TAA 1”, “CO2” for “C02”, “rpm). This procedure was repeated and the final pellet resuspended in HEPES-NaOH containing 0.1 mM EDTA.” for “rpm).”; format: cell-based, HEK293
Chain of Trace amine-associated receptor 1 (Rattus norvegicus, UniProt Q923Y9) (Q923Y9 whole entry): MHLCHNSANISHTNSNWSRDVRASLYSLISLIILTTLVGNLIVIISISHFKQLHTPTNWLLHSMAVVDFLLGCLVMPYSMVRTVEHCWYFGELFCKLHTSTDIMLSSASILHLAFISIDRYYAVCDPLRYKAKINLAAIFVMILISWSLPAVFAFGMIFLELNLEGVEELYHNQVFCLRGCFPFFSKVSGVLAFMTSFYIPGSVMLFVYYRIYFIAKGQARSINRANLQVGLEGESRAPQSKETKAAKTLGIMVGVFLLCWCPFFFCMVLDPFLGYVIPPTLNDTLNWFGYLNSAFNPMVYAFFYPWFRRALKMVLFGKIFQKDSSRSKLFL

Chain of Trace amine-associated receptor 1 (Mus musculus, UniProt Q923Y8) (Q923Y8 whole entry): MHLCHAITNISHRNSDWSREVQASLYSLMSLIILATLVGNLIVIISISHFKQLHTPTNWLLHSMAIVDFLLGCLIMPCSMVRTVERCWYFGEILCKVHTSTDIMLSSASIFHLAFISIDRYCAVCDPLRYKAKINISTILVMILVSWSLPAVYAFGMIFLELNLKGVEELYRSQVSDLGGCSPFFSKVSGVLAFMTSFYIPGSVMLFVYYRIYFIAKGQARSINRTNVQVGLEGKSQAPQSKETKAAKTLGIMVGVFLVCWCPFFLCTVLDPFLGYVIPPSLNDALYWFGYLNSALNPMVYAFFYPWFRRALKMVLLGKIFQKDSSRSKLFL

Row | SMILES | Ki [1] | Ki [2]
1 | N#Cc1cccc(CNC(=O)Nc2ccc([C@H]3CNCCO3)cc2F)c1 | 3.1 nM | 67.9 nM
2 | COc1ccc(C#N)cc1NC(=O)Nc1ccc([C@@H]2CNCCO2)cc1F | 4.4 nM | 5.9 nM
3 | CCOc1ccc(C#N)cc1NC(=O)Nc1ccc([C@H]2CNCCO2)cc1F | 1.8 nM | 1.9 nM
4 | CCOc1ccc(C#N)cc1NC(=O)Nc1ccc([C@@H]2CNCCO2)cc1F | 3.1 nM | 3.9 nM
5 | N#Cc1ccnc(C(=O)Nc2ccc([C@@H]3CNCCO3)cc2F)c1 | 5 nM | 32.5 nM
6 | N#Cc1cccc(C(=O)Nc2ccc([C@H]3CNCCO3)cc2F)n1 | 9.7 nM | 959 nM
7 | O=C(Nc1ccc([C@H]2CNCCO2)c(F)c1)c1cnn(-c2ccc(OC(F)F)cc2)c1 | 0.6 nM | 0.7 nM
8 | N#Cc1cccc(C(=O)Nc2ccc([C@@H]3CNCCO3)cc2Cl)n1 | 82.4 nM | 184 nM
9 | N#Cc1cccc(C(=O)Nc2ccc([C@H]3CNCCO3)cc2Cl)n1 | 27.6 nM | 565 nM
10 | N#Cc1ccc(C(=O)Nc2ccc([C@H]3CNCCO3)cc2Cl)nc1 | 6.3 nM | 154 nM
11 | N#Cc1ccc(C(=O)Nc2ccc([C@@H]3CNCCO3)cc2Cl)nc1 | 12 nM | 20.2 nM
12 | N#Cc1ccc(C(=O)Nc2ccc([C@H]3CNCCO3)cc2Cl)cn1 | 17 nM | 524 nM
13 | N#Cc1ccc(C(=O)Nc2ccc([C@@H]3CNCCO3)cc2Cl)cn1 | 25.9 nM | 410 nM
14 | N#Cc1cc(Cl)cc(C(=O)Nc2ccc([C@H]3CNCCO3)cc2F)n1 | 6.3 nM | 93.8 nM
15 | O=C(Nc1ccc([C@H]2CNCCO2)c(F)c1)c1cnn(-c2ccnc(C(F)(F)F)n2)c1 | 8 nM | 3.6 nM
16 | O=C(Nc1ccc([C@H]2CNCCO2)c(F)c1)c1cnn(-c2cnc(C(F)(F)F)cn2)c1 | 4.8 nM | 4 nM
